Data set [1] is described as follows: Penetration of cortexolone 17α-propionate, Franz Diffusion Cells. In kind it is in vitro ADME. Conditions: 1% (w/w) CB-03-01 in F4H5. As to the method: Cortexolone 17α-propionate (developmental code name CB-03-01; 21-Hydroxy-3,20-dioxopregn-4-en-17-yl propionate; CAS Registry Number: 19608-29-8) was dissolved in 1-perfluorbutylpentane (F4H5) to result in a solution of 1% (w/w) CB-03-01 in F4H5.

The nature of data set [2]: Penetration of latanoprost solution in hair roots of pig's eyelashes (eyelid incubation, HPLC). The data set is classed as in vitro ADME. As to the method: Test formulation: 0.5 mg/ml latanoprost (Yonsung, Purity 100,2%) in 1-perfluorobutylpentane (Novaliq) and 1% v/v ethanol (Merck, Secco solve dried).
Biological material: fresh pig's eyes with eyelids, not in buffer solution during transport from the slaughterhouse to the laboratory.
The upper eyelids were separated from the eye with scissors, forceps and scalpel. Each eyelid was placed in a glass vessel and incubation with the test formulation was started by addition of 1 ml of formulation. Since the eyelashes had different lengths, before incubation the eyelashes were shortened to standardise the incubation procedure. After incubation according to the plan in Table 3, the eyelids were washed with 1-perfluorobutylpentane eight times and eyelashes were plucked and weighted, as shown in Table 3.
After plucking of the eyelashes, the eyelids were punched with a 4 mm (0,126 cm^2) biopsy tool 5 times (total area 0,628 cm^2). The skin and the conjunctiva were then separated.
Extraction via addition of […] ACN (acetonitrile) to each sample at room temperature on orbital shaker (150 rpm) and minirotator (Biosan maximum level) for 2 hours. Then the samples were centrifuged for 5 minutes at 13000 rpm. The supernatant collected from the samples was stored at −20° C. till analysis.
The amount of latanoprost and of the bio transformed latanoprost acid in the tissues and eyelashes were determined via HPLC. For the calculation, the mean assay values for latanoprost acid were corrected with a factor of 1,1 as the molecular weight of latanoprost acid is lower than the weight of latanoprost.

Data set [3] can be described thus: Penetration of latanoprost into minipig skin punches with and without hair (Franz Diffusion Cells, HPLC). The data set is classed as in vitro ADME, Gottingen minipig. Conditions: 2 hours incubation. As for the experimental part: Biological material: abdominal and dorsal full skin, R1 and part of L1 region, of 5 months old Gottingen minipig skin.
For the incubation experiments, Franz Diffusion Cells (FDC) having an inner diameter of 15 mm and an acceptor volume of 12 ml were used. Donor and acceptor chambers were made of glass.
Twelve frozen full thickness skin disks were punched with a diameter of 30 mm. After complete defrosting and equilibration to room temperature, the punches were clamped into Franz diffusion cells (FDC). Each skin disc was dried with wipes, clamped in between the corresponding FDCs having an inner diameter of 15 mm (1.767 cm^2 skin diffusion area) and an acceptor volume of approximately 12 ml. The receiver compartment of the cells was filled with PBS (phosphate buffered saline). Incubation was started by addition of 800 […]1 of test formulation 1-3. […]
Out of each skin disc, 20 skin discs having a diameter of 2 mm were obtained by punching with a disposable biopsy punch, which was put on top of the skin and pressed through the full thickness of the skin. […] The ten punches with hair and without hair obtained by each disc were placed respectively in pre-weighed tubes and the weight was determined. […]
Via HPLC analysis, the amount of latanoprost penetrated in the skin disks after incubation with the test formulations and the amount of latanoprost acid were evaluated and are illustrated in the FIGS. 1-3.

The structures appear in SMILES notation.

As for `CCC(=O)O[C@]1(C(=O)CO)CC[C@H]2[C@@H]3CCC4=CC(=O)CC[C@]4(C)[C@H]3CC[C@@]21C` [cortexolone 17α-propionate, 21-Hydroxy-3,20-dioxopregn-4-en-17-yl propionate], the “amount found in the dermis” value in data set [1] was “especially high amounts of cortexolone 17α-propionate were found in the dermis”. The “delivery to layers of the skin” value in data set [1] (stratum corneum, epidermis and dermis) is “effectively and rapidly delivered to layers of the skin”.
On to `CC(C)OC(=O)CCC/C=C\C[C@@H]1[C@@H](CC[C@@H](O)CCc2ccccc2)[C@H](O)C[C@@H]1O` [latanoprost], for which the “latanoprost acid in eyelashes” value in data set [2] (25 hours incubation, FIG. 5) is on record as “a small amount of latanoprost acid was detected”. For the same compound, in data set [2] (FIG. 4, 2, 15, 25 hrs), the “amount of latanoprost in eyelashes” value is recorded as “preferred affinity to the eyelashes”. Moreover, the “amount of latanoprost in skin parts” value in data set [2] (FIG. 4, compared with eyelashes) was “Comparable lower amount of latanoprost were detected in the skin parts”. The “uptake of latanoprost, skin punches with hair vs without hair” value in data set [3] (FIG. 1, microgram per cm^2) is listed as “higher for skin punches with hair than for skin punches without hair”. Besides, in data set [3] (FIG. 2), the “content of latanoprost acid, punches with hair vs without hair” value was “higher content of latanoprost acid than punches without hair”.
